Experimental data from the NIST ThermoML archive (doi:10.1016/j.jct.2015.07.032).

What was measured:
[1] = relative permittivity at various frequencies (dimensionless); conditions: 100 kPa, Liquid, Frequency=1 MHz, Parallel plate capacitor
[2] = relative permittivity at various frequencies (dimensionless); xn = mol fraction of the nth substance listed; conditions: 100 kPa, Liquid, Frequency=1 MHz, Parallel plate capacitor

CCCCCCCO [heptan-1-ol]
[1]
Conditions	relative permittivity
293.15 K	11.97
298.15 K	11.47
303.15 K	10.98

CCCCCCCCCCO [decan-1-ol]
[1]
Conditions	relative permittivity
293.15 K	8.41
298.15 K	8.01
303.15 K	7.64

CCCCCCCCCCO [decan-1-ol] + NC1CCCCC1
[2], x1 = 1
Conditions	relative permittivity
293.15 K	8.41
298.15 K	8.01
303.15 K	7.64

NC1CCCCC1 [cyclohexylamine] + CCCCO
relative permittivity, [2]
Conditions	293.15 K	298.15 K	303.15 K
x2 = 0	4.62	4.53	4.45
x2 = 0.0493	4.99	4.9	4.8
x2 = 0.1081	5.46	5.35	5.23
x2 = 0.2107	6.37	6.22	6.07
x2 = 0.3104	7.39	7.2	7.01
x2 = 0.403	8.47	8.22	7.99
x2 = 0.4521	9.08	8.82	8.56
x2 = 0.4995	9.73	9.44	9.15
x2 = 0.5556	10.55	10.21	9.9
x2 = 0.5974	11.18	10.82	10.49
x2 = 0.6987	12.81	12.4	11.98
x2 = 0.7968	14.53	14.04	13.57
x2 = 0.8955	16.31	15.76	15.24
x2 = 0.9472	17.26	16.67	16.11
x2 = 0.9773	17.82	17.2	16.63

CCCCO [butan-1-ol] + NC1CCCCC1
[2], x1 = 1
Conditions	relative permittivity
293.15 K	18.21
298.15 K	17.58
303.15 K	16.95

CCCCCCCO [heptan-1-ol] + NC1CCCCC1
[2], x1 = 1
Conditions	relative permittivity
293.15 K	11.97
298.15 K	11.47
303.15 K	10.98

NC1CCCCC1 [cyclohexylamine] + CCCCCCCO
relative permittivity, [2]
Conditions	293.15 K	298.15 K	303.15 K
x2 = 0	4.62	4.53	4.45
x2 = 0.0522	4.93	4.83	4.74
x2 = 0.1037	5.22	5.11	5.01
x2 = 0.2039	5.8	5.7	5.61
x2 = 0.2903	6.29	6.15	6.01
x2 = 0.3955	6.93	6.76	6.6
x2 = 0.4467	7.27	7.08	6.91
x2 = 0.5072	7.67	7.45	7.26
x2 = 0.5554	8.01	7.78	7.56
x2 = 0.5918	8.26	8.01	7.78
x2 = 0.6575	8.72	8.45	8.19
x2 = 0.6959	9.01	8.71	8.44
x2 = 0.7433	9.39	9.07	8.77
x2 = 0.7933	9.81	9.46	9.13
x2 = 0.8177	10.03	9.67	9.34
x2 = 0.8881	10.7	10.29	9.9
x2 = 0.9463	11.35	10.89	10.45

CCCO [propan-1-ol] + NC1CCCCC1
[2], x1 = 1
Conditions	relative permittivity
293.15 K	21.23
298.15 K	20.54
303.15 K	19.84

CCCCO [butan-1-ol]
[1]
Conditions	relative permittivity
293.15 K	18.21
298.15 K	17.58
303.15 K	16.95

CCCO [propan-1-ol]
[1]
Conditions	relative permittivity
293.15 K	21.23
298.15 K	20.54
303.15 K	19.84

NC1CCCCC1 [cyclohexylamine] + CCCCCCCCCCO
relative permittivity, [2]
Conditions	293.15 K	298.15 K	303.15 K
x2 = 0	4.62	4.53	4.45
x2 = 0.0561	4.87	4.78	4.69
x2 = 0.1027	5.05	4.95	4.85
x2 = 0.2012	5.4	5.29	5.19
x2 = 0.2947	5.73	5.6	5.49
x2 = 0.4077	6.09	5.95	5.82
x2 = 0.5107	6.42	6.26	6.11
x2 = 0.5522	6.56	6.38	6.22
x2 = 0.604	6.72	6.53	6.36
x2 = 0.6528	6.88	6.68	6.5
x2 = 0.697	7.02	6.81	6.61
x2 = 0.7474	7.2	6.97	6.76
x2 = 0.7859	7.34	7.09	6.87
x2 = 0.8348	7.54	7.27	7.02
x2 = 0.8915	7.81	7.51	7.22
x2 = 0.942	8.08	7.73	7.41

NC1CCCCC1 [cyclohexylamine] + CCCO
relative permittivity, [2]
Conditions	293.15 K	298.15 K	303.15 K
x2 = 0	4.62	4.53	4.45
x2 = 0.034	4.88	4.78	4.68
x2 = 0.1154	5.64	5.08	5.37
x2 = 0.213	6.58	6.42	6.26
x2 = 0.3031	7.66	7.46	7.26
x2 = 0.3996	9.02	8.76	8.5
x2 = 0.4469	9.77	9.48	9.19
x2 = 0.4962	10.61	10.29	9.97
x2 = 0.5499	11.61	11.25	10.89
x2 = 0.6056	12.69	12.29	11.9
x2 = 0.6998	14.69	14.24	13.79
x2 = 0.7953	16.94	16.43	15.92
x2 = 0.8464	18.08	17.54	17.01
x2 = 0.8913	19.21	18.71	18.14
x2 = 0.9509	20.44	19.85	19.21
x2 = 0.9798	21.09	20.41	19.77

NC1CCCCC1 [cyclohexylamine]
[1]
Conditions	relative permittivity
293.15 K	4.62
298.15 K	4.53
303.15 K	4.45
